Source: publication PMC6222544, “Fragment-Based Lead Generation of 5-Phenyl-1H-pyrazole-3-carboxamide Derivatives as Leads for Potent Factor Xia Inhibitors” (Molecules : A Journal of Synthetic Chemistry and Natural …, 2018)
pKi: −log10 of the molar value. Read-outs that look alike come from different tables or passages of the source.

Legend:
[1] = molecular target: T1, human FXIa (Homo sapiens, UniProt P03951); assay: Inhibition of FXIa in vitro (chromogenic substrate assay); format: biochemical
T1 construct: purchased Haematologic Technologies, Essex Junction, VT, USA
Method: The negative controlwas composed of the same mixed solutions except replacing test compound with DMSO. […] The IC50 was calculated by IBM SPSS Statistics 22.0 (IBM Inc., North Castle, NY, USA) and the Probit function in it. IC50 values were converted to Ki values by the followingrelationship:Ki = IC50/(1 + [S]/Km)

[2] = human FXIa, chromogenic substrate BIOPHEN CS-21(66), 37 °C, pH 7.4, Ki = IC50/(1 + [S]/Km), read-out: Ki
[3] = Table 1 values, read-out: FXIa inhibitory potency (Ki)

T1 sequence (P03951 388-625 limits assumed): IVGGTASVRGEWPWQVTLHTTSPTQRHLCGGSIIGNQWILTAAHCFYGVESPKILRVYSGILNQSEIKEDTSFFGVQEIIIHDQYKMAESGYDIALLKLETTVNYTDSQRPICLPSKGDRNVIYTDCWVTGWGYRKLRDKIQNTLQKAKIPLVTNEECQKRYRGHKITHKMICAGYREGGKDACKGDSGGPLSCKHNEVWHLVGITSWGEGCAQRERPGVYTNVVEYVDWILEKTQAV
T1 sequence (P03951 19-387 partner limits assumed): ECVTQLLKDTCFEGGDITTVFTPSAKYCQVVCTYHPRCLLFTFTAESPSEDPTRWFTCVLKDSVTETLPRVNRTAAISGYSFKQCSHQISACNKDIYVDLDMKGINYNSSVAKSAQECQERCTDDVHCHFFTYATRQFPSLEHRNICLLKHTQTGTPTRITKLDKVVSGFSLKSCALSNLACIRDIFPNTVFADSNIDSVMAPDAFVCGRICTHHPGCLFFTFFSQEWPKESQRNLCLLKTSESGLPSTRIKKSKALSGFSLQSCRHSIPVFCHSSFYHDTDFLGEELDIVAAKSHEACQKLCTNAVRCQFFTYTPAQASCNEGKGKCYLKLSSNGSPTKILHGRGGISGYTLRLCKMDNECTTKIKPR

Row | SMILES | pKi [1, 2] | melting point | pKi [1, 3]
1 | Cc1c(C(=O)N[C@@H](Cc2ccccc2)C(=O)Nc2ccc(C(=O)O)cc2)n[nH]c1-c1cccc(Cl)c1 [Compound 7m, (S)-4-(2-(5-(3-Chlorophenyl)-4-methyl-1H-pyrazole-3-carboxamido)-3-phenylpropanamido)benzoic acid] | 4.43 | 164 to 166 °C (dec.) | –
2 | O=C(O)c1ccc(NC(=O)[C@H](Cc2ccccc2)NC(=O)c2cc(-c3ccccc3F)[nH]n2)cc1 [Compound 7c, (S)-4-(2-(5-(2-Fluorophenyl)-1H-pyrazole-3-carboxamido)-3-phenylpropanamido)benzoic acid] | < 4.07 | 86 to 88 °C (dec.) | –
3 | O=C(O)c1ccc(NC(=O)[C@H](Cc2ccccc2)NC(=O)c2cc(-c3cccc(Cl)c3)[nH]n2)cc1 [Compound 7a, (S)-4-(2-(5-(3-Chlorophenyl)-1H-pyrazole-3-carboxamido)-3-phenylpropanamido)benzoic acid] | 4.33 | 147 to 149 °C (dec.) | –
4 | O=C(O)c1ccc(NC(=O)[C@H](Cc2ccccc2)NC(=O)c2cc(-c3ccc(Cl)cc3F)[nH]n2)cc1 [Compound 7g, (S)-4-(2-(5-(4-Chloro-2-fluorophenyl)-1H-pyrazole-3-carboxamido)-3-phenylpropanamido)benzoic acid] | < 4.07 | 143 to 145 °C (dec.) | –
5 | O=C(O)c1ccc(NC(=O)[C@H](Cc2ccccc2)NC(=O)c2cc(-c3cccc(Cl)c3F)[nH]n2)cc1 [Compound 7f, (S)-4-(2-(5-(3-Chloro-2-fluorophenyl)-1H-pyrazole-3-carboxamido)-3-phenylpropanamido)benzoic acid] | 4.53 | 185 to 187 °C (dec.) | –
6 | O=C(O)c1ccc(NC(=O)[C@H](Cc2ccccc2)NC(=O)c2cc(-c3ccccc3)[nH]n2)cc1 [Compound 7b, (S)-4-(3-Phenyl-2-(5-phenyl-1H-pyrazole-3-carboxamido)propanamido)benzoic acid] | < 4.07 | 137 to 139 °C (dec.) | –
7 | Cc1c(C(=O)N[C@@H](Cc2ccccc2)C(=O)Nc2ccc3[nH]c(C(=O)O)cc3c2)n[nH]c1-c1cccc(Cl)c1 [Compound 7q, (S)-5-(2-(3-(3-Cchlorophenyl)-4-methyl-1H-pyrazole-5-carboxamido)-3-phenylpropanamido)-1H-indole-2-carboxylic acid] | 5.05 | 154 to 156 °C (dec.) | –
8 | O=C(N[C@@H](Cc1ccc(N2CCOCC2=O)cc1)C(=O)Nc1ccc2[nH]c(C(=O)O)cc2c1)c1cc(-c2cccc(Cl)c2F)[nH]n1 [Compound 7zc, (S)-5-(2-(5-(3-Chloro-2-fluorophenyl)-1H-pyrazole-3-carboxamido)-3-(4-(3-oxomorpholino)phenyl)-propanamido)-1H-indole-2-carboxylic acid] | 5.32 | 200 to 202 °C (dec.) | –
9 | O=C(O)c1ccc(NC(=O)[C@H](Cc2ccccc2)NC(=O)c2cc(-c3ccccc3Cl)[nH]n2)cc1 [Compound 7d, (S)-4-(2-(5-(2-Chlorophenyl)-1H-pyrazole-3-carboxamido)-3-phenylpropanamido)benzoic acid] | < 4.07 | 92 to 94 °C (dec.) | –
10 | O=C(O)c1ccc(NC(=O)[C@H](Cc2ccccc2)NC(=O)c2cc(-c3c(F)cccc3Cl)[nH]n2)cc1 [Compound 7i, (S)-4-(2-(5-(2-Chloro-6-fluorophenyl)-1H-pyrazole-3-carboxamido)-3-phenylpropanamido)benzoic acid] | < 4.07 | 203 to 205 °C (dec.) | –
11 | O=C(O)c1cc2cc(NC(=O)[C@H](CC(=O)N3CCOCC3)NC(=O)c3cc(-c4cccc(Cl)c4F)n[nH]3)ccc2[nH]1 [Compound 7y, (S)-5-(2-(3-(3-Chloro-2-fluorophenyl)-1H-pyrazole-5-carboxamido)-4-morpholino-4-oxobutanamido)-1H-indole-2-carboxylic acid] | – | 175 to 177 °C (dec.) | 4.19
12 | Nc1ccc(C[C@H](NC(=O)c2cc(-c3cccc(Cl)c3F)[nH]n2)C(=O)Nc2ccc3[nH]c(C(=O)O)cc3c2)cc1 [Compound 7z, (S)-5-(3-(4-Aminophenyl)-2-(5-(3-chloro-2-fluorophenyl)-1H-pyrazole-3-carboxamido)propanamido)-1H-indole-2-carboxylic acid] | 5.39 | 209 to 211 °C (dec.) | –
13 | O=C(O)c1ccc(NC(=O)[C@H](Cc2ccccc2)NC(=O)c2cc(-c3c(F)ccc(Cl)c3F)[nH]n2)cc1 [Compound 7k, (S)-4-(2-(5-(3-Chloro-2,6-difluorophenyl)-1H-pyrazole-3-carboxamido)-3-phenylpropanamido)benzoicacid] | 4.54 | 129 to 131 °C (dec.) | –
14 | O=C(O)c1cc2cc(NC(=O)[C@H](Cc3ccncc3)NC(=O)c3cc(-c4cccc(Cl)c4F)n[nH]3)ccc2[nH]1 [Compound 7u, (S)-5-(2-(3-(3-Chloro-2-fluorophenyl)-1H-pyrazole-5-carboxamido)-3-(pyridin-4-yl)propanamido)-1H-indole-2-carboxylic acid] | – | 199 to 201 °C (dec.) | 4.88
15 | CC(=O)N1CCN(C(=O)C[C@H](NC(=O)c2cc(-c3cccc(Cl)c3F)[nH]n2)C(=O)Nc2ccc3[nH]c(C(=O)O)cc3c2)CC1 [Compound 7x, (S)-5-(4-(4-Acetylpiperazin-1-yl)-2-(5-(3-chloro-2-fluorophenyl)-1H-pyrazole-3-carboxamido)-4-oxobutanamido)-1H-indole-2-carboxylic acid] | – | – | 4.09

The next lines start with the values.

Row | pKi [1, 2] | melting point | pKi [1, 3] | SMILES
16 | < 4.07 | 126 to 128 °C (dec.) | – | CCc1c(C(=O)N[C@@H](Cc2ccccc2)C(=O)Nc2ccc(C(=O)O)cc2)n[nH]c1-c1cccc(Cl)c1 [Compound 7n, (S)-4-(2-(5-(3-Chlorophenyl)-4-ethyl-1H-pyrazole-3-carboxamido)-3-phenylpropanamido)benzoic acid]
17 | < 4.07 | 123 to 125 °C (dec.) | – | O=C(O)c1ccc(NC(=O)[C@H](Cc2ccccc2)NC(=O)c2cc(-c3c(F)cc(Cl)cc3F)[nH]n2)cc1 [Compound 7l, (S)-4-(2-(5-(4-Chloro-2,6-difluorophenyl)-1H-pyrazole-3-carboxamido)-3-phenylpropanamido)benzoic acid]
18 | – | 172 to 174 °C (dec.) | 5.71 | O=C(O)c1cc2cc(NC(=O)[C@H](Cc3ccccc3)NC(=O)c3cc(-c4cccc(Cl)c4F)n[nH]3)ccc2[nH]1 [Compound 7o, (S)-5-(2-(3-(3-Chloro-2-fluorophenyl)-1H-pyrazole-5-carboxamido)-3-phenylpropanamido)-1H-indole-2-carboxylic acid]
19 | 5.71 | 203 to 205 °C (dec.) | – | CN1CCN(C(=O)Nc2ccc(C[C@H](NC(=O)c3cc(-c4cccc(Cl)c4F)[nH]n3)C(=O)Nc3ccc4[nH]c(C(=O)O)cc4c3)cc2)CC1 [Compound 7zb, (S)-5-(2-(5-(3-Chloro-2-fluorophenyl)-1H-pyrazole-3-carboxamido)-3-(4-(4-methylpiperazine-1-carboxamido)phenyl)propanamido)-1H-indole-2-carboxylic acid]
20 | – | 192 to 194 °C (dec.) | 5.05 | O=C(O)c1cc2cc(NC(=O)[C@H](Cc3ccccn3)NC(=O)c3cc(-c4cccc(Cl)c4F)n[nH]3)ccc2[nH]1 [Compound 7w, (S)-5-(2-(3-(3-Chloro-2-fluorophenyl)-1H-pyrazole-5-carboxamido)-3-(pyridin-2-yl)propanamido)-1H-indole-2-carboxylic acid]
21 | – | 175 to 177 °C (dec.) | 5.45 | O=C(O)c1cc2cc(NC(=O)[C@H](Cc3cccnc3)NC(=O)c3cc(-c4cccc(Cl)c4F)n[nH]3)ccc2[nH]1 [Compound 7v, (S)-5-(2-(3-(3-Chloro-2-fluorophenyl)-1H-pyrazole-5-carboxamido)-3-(pyridin-3-yl)propanamido)-1H-indole-2-carboxylic acid]
22 | < 4.07 | 179 to 181 °C (dec.) | – | O=C(O)c1ccc(NC(=O)[C@H](Cc2ccccc2)NC(=O)c2cc(-c3cc(Cl)ccc3F)[nH]n2)cc1 [Compound 7h, (S)-4-(2-(5-(5-Chloro-2-fluorophenyl)-1H-pyrazole-3-carboxamido)-3-phenylpropanamido)benzoic acid]
23 | – | 186 to 188 °C (dec.) | 6.03 | O=C(O)c1cc2cc(NC(=O)[C@H](Cc3ccc(F)cc3)NC(=O)c3cc(-c4cccc(Cl)c4F)n[nH]3)ccc2[nH]1 [Compound 7s, (S)-5-(2-(3-(3-Chloro-2-fluorophenyl)-1H-pyrazole-5-carboxamido)-3-(4-fluorophenyl)propanamido)-1H-indole-2-carboxylic acid]
24 | < 4.07 | 205 to 207 °C (dec.) | – | O=C(O)c1ccc(NC(=O)[C@H](Cc2ccccc2)NC(=O)c2cc(-c3c(F)cccc3F)[nH]n2)cc1 [Compound 7j, (S)-4-(2-(5-(2,6-Difluorophenyl)-1H-pyrazole-3-carboxamido)-3-phenylpropanamido)benzoic acid]
25 | 5.08 | 164 to 166 °C (dec.) | – | O=C(O)c1cc2cc(NC(=O)[C@H](Cc3ccccc3)NC(=O)c3cc(-c4c(F)ccc(Cl)c4F)n[nH]3)ccc2[nH]1 [Compound 7p, (S)-5-(2-(3-(3-Chloro-2,6-difluorophenyl)-1H-pyrazole-5-carboxamido)-3-phenylpropanamido)-1H-indole-2-carboxylic acid]
26 | – | 174 to 176 °C (dec.) | 5.78 | O=C(O)c1cc2cc(NC(=O)[C@H](Cc3cccc(F)c3)NC(=O)c3cc(-c4cccc(Cl)c4F)n[nH]3)ccc2[nH]1 [Compound 7t, (S)-5-(2-(3-(3-Chloro-2-fluorophenyl)-1H-pyrazole-5-carboxamido)-3-(3-fluorophenyl)propanamido)-1H-indole-2-carboxylic acid]
